Results taken from patent publication US9889183B2, “PKC activators and anticoagulant in regimen for treating stroke” (BLANCHETTE ROCKEFELLER NEUROSCIENCES INSTITUTE, priority 2010, dated 2018).

Tests used:
PKCε [1] = biological target: T1, PKCε (Homo sapiens, UniProt Q02156); assay: PKC assay with purified PKCε; type: biochemical
T1 construct: purchased Calbiochem
T1 sequence (Q02156 1-737): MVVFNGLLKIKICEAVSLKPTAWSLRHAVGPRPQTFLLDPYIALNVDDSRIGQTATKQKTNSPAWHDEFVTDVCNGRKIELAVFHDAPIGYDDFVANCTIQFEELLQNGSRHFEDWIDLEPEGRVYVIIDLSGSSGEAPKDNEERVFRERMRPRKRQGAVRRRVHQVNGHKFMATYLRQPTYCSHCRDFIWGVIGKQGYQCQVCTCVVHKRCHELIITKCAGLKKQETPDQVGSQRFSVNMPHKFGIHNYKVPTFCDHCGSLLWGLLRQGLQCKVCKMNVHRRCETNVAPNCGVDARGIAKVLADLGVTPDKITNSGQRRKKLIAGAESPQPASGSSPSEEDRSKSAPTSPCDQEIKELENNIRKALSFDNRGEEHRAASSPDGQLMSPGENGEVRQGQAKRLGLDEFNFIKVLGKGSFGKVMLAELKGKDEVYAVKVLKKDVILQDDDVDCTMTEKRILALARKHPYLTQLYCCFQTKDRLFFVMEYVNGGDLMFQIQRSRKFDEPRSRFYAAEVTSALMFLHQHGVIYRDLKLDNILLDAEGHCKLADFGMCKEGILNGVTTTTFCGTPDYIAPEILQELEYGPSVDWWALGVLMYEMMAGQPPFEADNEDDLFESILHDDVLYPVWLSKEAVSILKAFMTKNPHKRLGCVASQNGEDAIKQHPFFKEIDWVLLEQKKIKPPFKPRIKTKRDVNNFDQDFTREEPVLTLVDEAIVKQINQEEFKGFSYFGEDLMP
Description: PKC assay. Recombinant PKC (1 ng of PKCα or PKCε isoform) was mixed with BR-101 (DCP-LA) in the presence of 10 micromolar histones, 5 mM CaCl2, 1.2 μg/μl phosphatidyl-L-serine, 0.18 μg/μl 1,2-dioctanoyl-sn-glycerol (DAG), 10 mM MgCl2, 20 mM HEPES (pH 7.4), 0.8 mM EDTA, 4 mM EGTA, 4% glycerol, 8 μg/ml aprotinin, 8 μg/ml leupeptin, and 2 mM benzamidine. 0.5 micro Ci[^γ32P]ATP was added. The incubation mixture was incubated for 15 min at 37 degrees in a total volume of 10 microliters. The reaction was stopped by spotting the reaction mixtures on 1×2 cm strips of cellulose phosphate paper (Whatman P81) and immediately washing twice for 1 hr in 0.5% H3PO4. The cellulose phosphate strips were counted in a scintillation counter. In some experiments, phosphatidylserine, diacylglycerol, and/or calcium were removed.
DHA methyl ester was purchased from Cayman Chemical (Ann Arbor, Me.). PKC isozymes were from Calbiochem (San Diego, Calif.). Purified PKCε was purchased from Calbiochem.
(§1) Protein kinase C assay. Rat hippocampal cells were cultured and scraped in 0.2 ml homogenization buffer (20 mM Tris-HCl, pH 7.4, 50 mM NaF, 1 μg/ml leupeptin, and 0.1 mM PMSF) and homogenized by sonication a Marsonix microprobe sonicator (5 sec, 10 W). To measure PKC, 10 μl of cell homogenate or purified PKC isozyme (purchased from Calbiochem) was incubated for 15 min at 37° C. in the presence of 10 μM histones, 4.89 mM CaCl2, 1.2 μg/μl phosphatidyl-L-serine, 0.18 μg/μl 1,2-dioctanoyl-sn-glycerol, 10 mM MgCl2, 20 mM HEPES (pH 7.4), 0.8 mM EDTA, 4 mM EGTA, 4% glycerol, 8 μg/ml aprotinin, 8 μg/ml leupeptin, and 2 mM benzamidine. […][^γ32P]ATP was added and ^32P-phosphoprotein formation was measured by adsorption onto phosphocellulose as described previously. Nelson and Alkon, J. Neurochemistry (1995), vol. 65, pp. 2350-2357. For measurements of activation by BR-101 (DCP-LA) and similar compounds. PKC activity was measured in the absence of diacylglycerol and phosphatidylserine and PKC δ, ε, η, and μ were measured in the absence of added EGTA and CaCl2, as described by Kanno et al. (J. Lipid Res. 2006, vol. 47, pp. 1146-1150). Low concentrations of Ca^2+ are used because high Ca^2+ interacts with the PKC phosphatidylserine binding site and prevents activation. For measurements of bryostatin activation, 1,2-diacylglycerol was omitted unless otherwise stated.
(§2) To determine their PKC isozyme specificity, fatty acid derivatives were preincubated with purified PKC for five minutes and the PKC activity was measured radiometrically.

other PKC isoforms = assay: PKC isozyme specificity, other PKC isoforms; type: biochemical; settings: data not shown
Description: as §1, with “Low concentrations of Ca^2+ are used because high Ca^2+ interacts with the PKC phosphatidylserine binding site and prevents activation. For measurements of bryostatin activation, 1,2-diacylglycerol was omitted unless otherwise stated.” left out
as §2

PKCδ = biological target: T2, PKCδ (Homo sapiens, UniProt Q05655); assay: PKC isozyme specificity, PKCδ; type: biochemical; settings: about 1-100 μM; data not shown
T2 construct: purchased Calbiochem
T2 sequence (Q05655 whole entry): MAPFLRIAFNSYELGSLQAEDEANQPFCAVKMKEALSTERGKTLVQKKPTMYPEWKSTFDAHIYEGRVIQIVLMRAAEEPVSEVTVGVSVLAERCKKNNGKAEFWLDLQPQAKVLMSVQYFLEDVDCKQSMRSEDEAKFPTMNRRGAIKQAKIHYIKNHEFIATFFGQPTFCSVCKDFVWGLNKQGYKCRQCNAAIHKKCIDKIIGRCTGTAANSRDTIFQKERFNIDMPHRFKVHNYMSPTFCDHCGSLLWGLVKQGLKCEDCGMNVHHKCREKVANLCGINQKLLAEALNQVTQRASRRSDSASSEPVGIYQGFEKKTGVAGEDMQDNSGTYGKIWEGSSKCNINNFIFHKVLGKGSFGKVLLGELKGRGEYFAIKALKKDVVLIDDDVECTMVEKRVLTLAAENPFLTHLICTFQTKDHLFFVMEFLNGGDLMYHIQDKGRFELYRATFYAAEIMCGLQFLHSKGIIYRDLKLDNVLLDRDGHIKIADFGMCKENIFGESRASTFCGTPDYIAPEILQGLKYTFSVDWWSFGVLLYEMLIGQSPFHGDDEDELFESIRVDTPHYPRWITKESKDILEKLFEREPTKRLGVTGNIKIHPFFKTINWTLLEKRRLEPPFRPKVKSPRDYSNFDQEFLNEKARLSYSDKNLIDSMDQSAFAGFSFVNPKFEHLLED
Description: as §1, with “Low concentrations of Ca^2+ are used because high Ca^2+ interacts with the PKC phosphatidylserine binding site and prevents activation. For measurements of bryostatin activation, 1,2-diacylglycerol was omitted unless otherwise stated.” left out
as §2

PKCε [2] = biological target: T1, PKCε; settings: cited from earlier work
[3] = tested on: global cerebral ischemia/hypoxia in rats; assay: Global ischemia model, water maze (Examples 10-11); type: in vivo, rat
Description: Rats (male, Wistar, 200-225 g) were randomly divided into 6 groups (8 each) and housed for 1 week before experimentation. […] The global ischemia model used to induce vascular memory impairment was two-vessel occlusion combined with a short term systemic hypoxia. Ligation of the bilateral common carotid arteries was performed under anesthesia (pentobarbital, 60 mg/kg, i.p.). After a one-week recovery from the surgery, rats were exposed to 14-min hypoxia (5% oxygen in a glass jar). Control rats (sham operated and vehicle controls) were subjected to the same incision to isolate both common carotid arteries and to 14-min air (in the glass jar). Body temperature was kept at 37-37.5° C. using a heating light source during the surgical procedure and until the animals were fully recovered.

[4] = tested on: global cerebral ischemia/hypoxia in rats; assay: Global cerebral ischemia/hypoxia, spatial learning and memory (Example 12); type: in vivo, rat
Description: Global cerebral ischemialhypoxia was induced in male Wistar rats (225-250 g) by permanently occluding the bilateral common carotid arteries, combined with about 14 minutes of low oxygen (about 5%). […] Spatial learning (2 trials/day for 4 days) and memory (a probe test of 1 minute, 24 hours after the last trial) task was performed 9 days after the last dose. Overall, there was a significant difference between the groups (F3,255=31.856, p<0.001) and groups x trials (F21,255=1.648, p<0.05). Global cerebral ischemia impaired the spatial learning (ischemial vs. sham-operated F1,127=[…]).

α-secretase = settings: 10 pM; human fibroblasts; cited from earlier work

## CCCCCC1CC1CC1CC1CCCCCCCC(=O)O (centres unmarked) [BR-101, 2-[(2-pentylcyclopropyl)methyl]cyclopropaneoctanoic acid]
PKCε [1]; at 10 μM
  activation of PKCε (in words): effective activator
Other PKC isoforms
  effects on the other PKC isoforms: relatively small effects
PKCδ
  effect on PKCδ: partially inhibited
PKCε [2]
  concentration of maximal effect, selective PKCε activation: 100 nM

## CCC1CC1CC1CC1CC1CC1CC1CC1CC1CC1CC1CC1CCC(=O)OC (centres unmarked) [BR-111, methyl-3-(2-((2-((2-((2-((2-((2-ethylcyclopropyl)methyl)cyclopropyl)methyl)cyclopropyl)methyl)-cyclopropyl)methyl)cyclopropyl)methyl)cyclopropyl)propanoate]
PKCε [1]
  concentration needed to activate PKC relative to BR-101 (DCP-LA): approximately 100 times lower
PKCε [1]; FIG. 7, methyl esters
  activation of purified PKCε (in words): activated purified PKCε to a similar extent

## CCC/C=C/C=C/C(=O)O[C@H]1/C(=C/C(=O)OC)C[C@H]2C[C@H]([C@@H](C)O)OC(=O)C[C@H](O)C[C@@H]3C[C@H](OC(C)=O)C(C)(C)[C@](O)(C[C@@H]4C/C(=C/C(=O)OC)C[C@H](/C=C/C(C)(C)[C@]1(O)O2)O4)O3 [Bryostatin-1, bryostatin-1]
[3]; bryostatin-1 20 μg/m^2 i.v. 2 doses/week, 10 doses, MCDA 1.0 mg/kg i.p. daily 5 weeks, start 24 hours after hypoxia
  water maze spatial learning, ischemic treated vs ischemic rats: greatly improved the performance
[3]; non-ischemic rats, same regimens
  water maze spatial learning, drug-only vs control rats: no differences
[3]; same regimens
  water maze spatial learning, ischemic treated vs control rats: did not differ statistically
[4]; 15 μg/m^2, ischemic rats
  memory retention (target quadrant preference) after ischemia: effectively restored memory retention
[4]; 15 μg/m^2, non-ischemic rats
  spatial learning, Bryostatin-1 alone vs sham-operated: did not affect the learning
  target quadrant preference, Bryostatin-1 alone vs sham-operated: no significant effects
[4]; 15 μg/m^2 tail vein, 2 doses/week, 10 doses, start about 24 hours after event, tested 9 days after last dose
  spatial learning impairment after ischemia: restored
α-secretase
  increase of initial rate of α-secretase activity: 16 fold
